Assay results taken from PubChem BioAssay AID248 (DTP/NCI, 2004).
Values joined by “and” are separate entries in the source; they are usually repeats but may differ in a detail not shown here. Equal values may be shown once. Inconclusive results and toxic doses are left out. No stated cut-off is given here; in the data, active means T/C of 150% or more; inactive means T/C below 125%.

Test system: L1210 leukemia ip in BDF1 mice, survival T/C
Assay: NCI In Vivo Anticancer Drug Screen. Data for tumor model L1210 Leukemia (intraperitoneal) in B6D2F1 (BDF1) mice
Conditions: endpoint: mean survival time, higher = longer survival
How it was run: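 Mice bearing the transplanted tumor received compound or vehicle. Survival of the treated group was divided by that of the vehicle-treated control group to give the ratio.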

[1] = dose: 100.0 mg/kg/injection, schedule: Q01DX009 (ip), vehicle: saline with Tween-80
[2] = dose: 100.0 mg/kg/injection, schedule: Q04DX003 (ip), vehicle: saline with Tween-80
[3] = dose: 200.0 mg/kg/injection, schedule: Q01DX009 (ip), vehicle: saline with Tween-80
[4] = dose: 200.0 mg/kg/injection, schedule: Q04DX003 (ip), vehicle: saline with Tween-80
[5] = dose: 25.0 mg/kg/injection, schedule: Q04DX003 (ip), vehicle: saline
[6] = dose: 50.0 mg/kg/injection, schedule: Q04DX003 (ip), vehicle: saline
[7] = dose: 100.0 mg/kg/injection, schedule: Q04DX003 (ip), vehicle: saline
[8] = dose: 200.0 mg/kg/injection, schedule: Q04DX003 (ip), vehicle: saline
[9] = dose: 100.0 mg/kg/injection, schedule: Q01DX001 (ip), vehicle: carboxymethylcellulose (CMC)
[10] = dose: 200.0 mg/kg/injection, schedule: Q01DX001 (ip), vehicle: carboxymethylcellulose (CMC)
[11] = dose: 400.0 mg/kg/injection, schedule: Q01DX001 (ip), vehicle: carboxymethylcellulose (CMC)
[12] = dose: 100.0 mg/kg/injection, schedule: Q04DX003 (ip), vehicle: Klucel (hydroxypropylcellulose) (HPC)
[13] = dose: 200.0 mg/kg/injection, schedule: Q04DX003 (ip), vehicle: Klucel (hydroxypropylcellulose) (HPC)
[14] = dose: 400.0 mg/kg/injection, schedule: Q04DX003 (ip), vehicle: Klucel (hydroxypropylcellulose) (HPC)
[15] = dose: 100.0 mg/kg/injection, schedule: Q01DX009 (ip), vehicle: Klucel (hydroxypropylcellulose) (HPC)
[16] = dose: 200.0 mg/kg/injection, schedule: Q01DX009 (ip), vehicle: Klucel (hydroxypropylcellulose) (HPC)
[17] = dose: 400.0 mg/kg/injection, schedule: Q01DX009 (ip), vehicle: Klucel (hydroxypropylcellulose) (HPC)
[18] = dose: 400.0 mg/kg/injection, schedule: Q04DX003 (ip), vehicle: saline
[19] = dose: 100.0 mg/kg/injection, schedule: Q01DX001 (ip), vehicle: saline
[20] = dose: 200.0 mg/kg/injection, schedule: Q01DX001 (ip), vehicle: saline
[21] = dose: 50.0 mg/kg/injection, schedule: Q01DX001 (ip), vehicle: carboxymethylcellulose (CMC)

Measured: T/C

CCCCCCCCCCCCOc1ccccc1
inactive: dose: 50.0 mg/kg/injection, schedule: Q01DX009 (ip), vehicle: saline with Tween-80 97 % of control | [1] 92 % of control | [2] 88 % of control | [3] 109 % of control | [4] 92 % of control

CN1CCN(C(=O)N2c3ccccc3Sc3ccccc32)CC1
inactive: dose: 12.5 mg/kg/injection, schedule: Q04DX003 (ip), vehicle: saline 99 % of control | [5] 95 % of control | [6] 101 % of control | [7] 100 % of control | [8] 92 % of control

O=C(Nc1c(Cl)c(Cl)c2c(c1Cl)Cc1cc(Cl)ccc1-2)C(Cl)Cl
inactive: [9] 101 % of control | [10] 101 % of control | [11] 106 % of control

CCOC(=O)/C=C/Oc1cc(Cl)c(Cl)cc1Cl
inactive: [1] 110 % of control | [3] 92 % of control | dose: 400.0 mg/kg/injection, schedule: Q01DX009 (ip), vehicle: saline with Tween-80 93 % of control

CCOC(=O)c1cnc(SC)nc1NNc1nc(SC)ncc1C(=O)OCC
inactive: [12] 93 % of control | [13] 90 % of control | [14] 93 % of control

Cc1cc(Cl)c(Cl)cc1NC(=O)c1ccc(Cl)cc1Cl
inactive: dose: 100.0 mg/kg/injection, schedule: Q04DX002 (ip), vehicle: Klucel (hydroxypropylcellulose) (HPC) 108 % of control | dose: 200.0 mg/kg/injection, schedule: Q04DX002 (ip), vehicle: Klucel (hydroxypropylcellulose) (HPC) 94 % of control | dose: 400.0 mg/kg/injection, schedule: Q04DX002 (ip), vehicle: Klucel (hydroxypropylcellulose) (HPC) 108 % of control

Sc1ccc2ccccc2c1
inactive: [15] 94 % of control | [7] 91 % of control | [16] 121 % of control | [8] 88 % of control | [17] 110 % of control | [18] 86 % of control

Cc1nc2ccccc2s1
inactive: dose: 100.0 mg/kg/injection, schedule: Q04DX002 (ip), vehicle: saline 106 % of control | dose: 200.0 mg/kg/injection, schedule: Q04DX002 (ip), vehicle: saline 98 % of control | dose: 400.0 mg/kg/injection, schedule: Q04DX002 (ip), vehicle: saline 102 % of control

COC(=O)NC1CCC(NC(=O)OC)CC1 (configuration not stated)
inactive: dose: 100.0 mg/kg/injection, schedule: Q01DX001 (ip), vehicle: Klucel (hydroxypropylcellulose) (HPC) 96 % of control | dose: 200.0 mg/kg/injection, schedule: Q01DX001 (ip), vehicle: Klucel (hydroxypropylcellulose) (HPC) 93 % of control | dose: 400.0 mg/kg/injection, schedule: Q01DX001 (ip), vehicle: Klucel (hydroxypropylcellulose) (HPC) 91 % of control

CC(C)CP(=S)(CC(C)C)CC(C)C
inactive: dose: 100.0 mg/kg/injection, schedule: Q01DX001 (ip), vehicle: saline with Tween-80 103 % of control | dose: 200.0 mg/kg/injection, schedule: Q01DX001 (ip), vehicle: saline with Tween-80 103 % of control | dose: 400.0 mg/kg/injection, schedule: Q01DX001 (ip), vehicle: saline with Tween-80 89 % of control

CC1(C)N=C(N)N=C(N)N1c1ccc(CCCC(=O)Nc2cccc(S(=O)(=O)F)c2)cc1
inactive: [19] 105 % of control and 89 % of control | [20] 103 % of control

NCC(=O)Oc1c(Cl)c(Cl)c(Cl)c(Cl)c1Cl
inactive: dose: 75.0 mg/kg/injection, schedule: Q01DX001 (ip), vehicle: saline 104 % of control

Cc1ccnc(NS(=O)(=O)c2ccc(N=Nc3c(N)nc(N)nc3N)cc2)n1
inactive: [19] 92 % of control | [20] 97 % of control | dose: 400.0 mg/kg/injection, schedule: Q01DX001 (ip), vehicle: saline 121 % of control

O=C(Nc1cccc(Cl)c1)Nc1ccc(Cl)c(C(F)(F)F)c1
inactive: [21] 94 % of control | [9] 105 % of control | [10] 100 % of control | [11] 102 % of control

Clc1nc2ccccc2nc1Cl
inactive: dose: 12.5 mg/kg/injection, schedule: Q04DX003 (sc), vehicle: olive oil, sesame oil, peanut oil 98 % of control | dose: 25.0 mg/kg/injection, schedule: Q04DX003 (sc), vehicle: olive oil, sesame oil, peanut oil 109 % of control

COc1ccc(Cl)cc1NS(=O)(=O)c1ccc(Cl)c([N+](=O)[O-])c1
inactive: [15] 98 % of control | [16] 109 % of control | [17] 98 % of control

CC(=O)Nc1ccc(S(=O)(=O)N=S(c2ccccc2)c2ccccc2)cc1
inactive: [21] 101 % of control | [9] 101 % of control | [10] 94 % of control | [11] 97 % of control

O=[N+]([O-])c1ccc(S(=O)(=O)N2CCN(S(=O)(=O)c3ccc([N+](=O)[O-])cc3)C2)cc1
inactive: dose: 50.0 mg/kg/injection, schedule: Q01DX009 (ip), vehicle: Klucel (hydroxypropylcellulose) (HPC) 93 % of control | [15] 87 % of control and 91 % of control | [12] 91 % of control | [16] 93 % of control | [13] 94 % of control | [17] 101 % of control | [14] 98 % of control

Nn1cn[nH]c1=S
inactive: [7] 98 % of control | [8] 103 % of control | [18] 98 % of control

CC(=O)OC1CCC2(C)C(=CCC3C2CCC2(C)C3CC3C(c4ccccc4Br)=NN(c4ccccc4)C32C#N)C1 (configuration not stated)
inactive: dose: 3.0 mg/kg/injection, schedule: Q04DX002 (ip), vehicle: Klucel (hydroxypropylcellulose) (HPC) 106 % of control | dose: 6.0 mg/kg/injection, schedule: Q04DX002 (ip), vehicle: Klucel (hydroxypropylcellulose) (HPC) 94 % of control and 107 % of control | dose: 12.0 mg/kg/injection, schedule: Q04DX002 (ip), vehicle: Klucel (hydroxypropylcellulose) (HPC) 100 % of control | dose: 25.0 mg/kg/injection, schedule: Q04DX002 (ip), vehicle: Klucel (hydroxypropylcellulose) (HPC) 104 % of control | dose: 50.0 mg/kg/injection, schedule: Q04DX002 (ip), vehicle: Klucel (hydroxypropylcellulose) (HPC) 114 % of control

CCCCCCCCCCCCNC(=O)Nc1ccc(C)cc1C
inactive: [15] 98 % of control | [12] 95 % of control | [16] 94 % of control | [13] 96 % of control | [17] 96 % of control | [14] 100 % of control

CCOC(=O)CC(=O)NC(C)(CCOCc1ccccc1)C(=O)OCC (configuration not stated)
inactive: [21] 101 % of control | [9] 103 % of control | [10] 110 % of control | [11] 103 % of control

CC1(C)CCC2(C)CCCCC2C1O (configuration not stated)
inactive: dose: 50.0 mg/kg/injection, schedule: Q04DX002 (ip), vehicle: saline with Tween-80 92 % of control | dose: 100.0 mg/kg/injection, schedule: Q04DX002 (ip), vehicle: saline with Tween-80 96 % of control | dose: 200.0 mg/kg/injection, schedule: Q04DX002 (ip), vehicle: saline with Tween-80 101 % of control

CC(C)N1CN(C(C)C)CN(C(C)C)C1
inactive: dose: 25.0 mg/kg/injection, schedule: Q01DX009 (ip), vehicle: saline 103 % of control | [5] 99 % of control | dose: 50.0 mg/kg/injection, schedule: Q01DX009 (ip), vehicle: saline 93 % of control | [6] 99 % of control | [7] 87 % of control

CCCSCC
inactive: [2] 93 % of control | [4] 91 % of control | dose: 400.0 mg/kg/injection, schedule: Q04DX003 (ip), vehicle: saline with Tween-80 101 % of control
